What is called EC50 is the concentration needed to bring the measured effect to its halfway point. A low value points to an effect from little substance.

Data on 18 compounds can be found in US12440496B2, “Natriuretic peptide receptor a agonists useful for the treatment of cardiometabolic diseases, kidney disease and diabetes” (Merck Sharp & Dohme LLC, priority 2019, dated 2025).

Each structure is given as a SMILES string.

This test deals with T1, hNPRA (Homo sapiens, UniProt P16066).
T1 construct: expressed in transfected cells
T1 sequence (P16066 33-1061): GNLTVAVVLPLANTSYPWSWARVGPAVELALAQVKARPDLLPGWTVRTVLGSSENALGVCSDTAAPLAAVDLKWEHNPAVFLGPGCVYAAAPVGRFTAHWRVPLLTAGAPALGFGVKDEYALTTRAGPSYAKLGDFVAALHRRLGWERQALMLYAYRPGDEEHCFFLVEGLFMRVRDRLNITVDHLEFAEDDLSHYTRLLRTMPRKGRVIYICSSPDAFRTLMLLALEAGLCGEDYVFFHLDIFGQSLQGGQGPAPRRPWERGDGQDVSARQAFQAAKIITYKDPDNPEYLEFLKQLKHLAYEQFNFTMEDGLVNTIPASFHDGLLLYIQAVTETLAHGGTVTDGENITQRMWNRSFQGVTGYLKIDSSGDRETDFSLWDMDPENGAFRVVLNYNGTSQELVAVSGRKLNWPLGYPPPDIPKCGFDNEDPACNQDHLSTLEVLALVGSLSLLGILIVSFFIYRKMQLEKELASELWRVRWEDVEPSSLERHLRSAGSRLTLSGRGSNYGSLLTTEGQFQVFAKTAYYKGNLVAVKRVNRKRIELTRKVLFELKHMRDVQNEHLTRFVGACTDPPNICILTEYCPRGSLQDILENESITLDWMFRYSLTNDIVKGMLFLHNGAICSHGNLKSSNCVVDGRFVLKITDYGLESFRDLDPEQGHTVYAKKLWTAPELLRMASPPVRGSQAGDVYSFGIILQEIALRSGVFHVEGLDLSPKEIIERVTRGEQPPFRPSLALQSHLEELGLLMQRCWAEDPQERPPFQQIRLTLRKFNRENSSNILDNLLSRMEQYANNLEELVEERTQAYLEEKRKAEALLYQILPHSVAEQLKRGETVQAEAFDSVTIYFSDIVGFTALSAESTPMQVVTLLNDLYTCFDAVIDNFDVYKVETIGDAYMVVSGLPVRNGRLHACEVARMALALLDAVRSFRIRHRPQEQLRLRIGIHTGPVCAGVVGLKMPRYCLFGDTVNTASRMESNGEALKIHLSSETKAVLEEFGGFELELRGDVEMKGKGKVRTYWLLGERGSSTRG
As to the kind of experiment: NPRA Functional Cell Assay (cGMP HTRF, NPRA HEK JumpIn stable cells). It counts as cell-based. The note with it: cGMP production, 1 hour at 37° C., 10-point dose response. In short, it runs like this: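 cGMP HTRF read-out after 1 hour compound treatment at 37° C. of human NPRA-expressing HEK JumpIn cells, 1500 cells/well, in buffer with phosphodiesterase inhibitors IBMX and RO20 (100 uM each). Signal converted to [cGMP] by calibration curve; EC50s fitted by 4-parameter logistic; 50 nM h-ANP as positive response.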
In general terms: In TR-FRET formats the signal depends on donor and acceptor labels being close together.
For `COC(=O)CC1CCN(CC[C@@H](NC(=O)c2nc3cc4c(nc3s2)CC[C@H](C(C)(C)C)C4)c2cccc(C(=O)NC3CN(C)C3)c2)CC1` (racemic) [Example 110, methyl 2-[1-[rac-(3R)-3-[3-{(1-methylazetidin-1-ium-3-yl)carbamoyl]phenyl]-3-[rac-(7S)-7-tert-butyl-5,6,7,8-tetrahydrothiazolo[5,4-b]quinoline-2-carbonyl]amino]propyl]-4-piperidyl]acetate; 2,2,2-trifluoroacetate], the midpoint of the response, the EC50, lay at 632 nM.

In the case of `CN(C)S(=O)(=O)Nc1ccc([C@@H](CCN2CCC(O)CC2)NC(=O)c2nc3cc4c(nc3s2)CC[C@H](C(C)(C)C)C4)cc1F` [Example 226, (S)-7-(tert-butyl)-N-((R)-1-(4-((N,N-dimethylsulfamoyl)amino)-3-fluorophenyl)-3-(4-hydroxypiperidin-1-yl)propyl)-5,6,7,8-tetrahydrothiazolo[5,4-b]quinoline-2-carboxamide], the EC50 amounted to 677 nM.

Turning to `Cc1[nH]cnc1-c1ccc([C@@H](CCN2CCC(O)CC2)NC(=O)c2nc3cc4c(nc3s2)CC[C@H](C(C)(C)C)C4)cc1` (racemic) [Example 174, rac-(7S)-7-tert-butyl-N-[rac-(1R)-3-(4-hydroxy-1-piperidyl)-1-[4-(5-methyl-1H-imidazol-4-yl)phenyl]propyl]-5,6,7,8-tetrahydrothiazolo[5,4-b]quinoline-2-carboxamide], the EC50 was 991 nM. Take `CC1([C@H]2CCc3nc4sc(C(=O)N[C@H](CCN5CCC(O)CC5)c5ccc(N6CC(=O)NC6=O)nc5)nc4cc3C2)CC1` [Example 218, (S)-N-((R)-1-(6-(2,4-dioxoimidazolidin-1-yl)pyridin-3-yl)-3-(4-hydroxypiperidin-1-yl)propyl)-7-(1-methylcyclopropyl)-5,6,7,8-tetrahydrothiazolo[5,4-b]quinoline-2-carboxamide]: a half-maximal effect (EC50) was put at 242 nM.

For `CC(C)(C)[C@H]1CCc2nc3sc(C(=O)N[C@H](CCN4CCC(C(=O)O)CC4)c4ccc(-c5cnc(O)c(F)c5)cc4)nc3cc2C1` [Example 223, 1-((R)-3-((S)-7-(tert-butyl)-5,6,7,8-tetrahydrothiazolo[5,4-b]quinoline-2-carboxamido)-3-(4-(5-fluoro-6-hydroxypyridin-3-yl)phenyl)propyl)piperidine-4-carboxylic acid], the EC50 came to 200 nM. To `CC(C)[C@]1(F)CCc2nc3sc(C(=O)N[C@H](CCN4CCC(O)CC4)c4ccc(N5CCOCS5(=O)=O)nc4)nc3cc2C1` [Example 217, (S)-N-((R)-1-(6-(3,3-dioxido-1,3,4-oxathiazinan-4-yl)pyridin-3-yl)-3-(4-hydroxypiperidin-1-yl)propyl)-7-fluoro-7-isopropyl-5,6,7,8-tetrahydrothiazolo[5,4-b]quinoline-2-carboxamide] belongs 71 nM; to `Cn1nnnc1-c1ccc([C@@H](CCN2CCC(O)CC2)NC(=O)c2nc3cc4c(nc3s2)CC[C@H](C(C)(C)C)C4)cc1` (racemic) [Example 177, rac-(7S)-7-tert-butyl-N-[rac-(1R)-3-(4-hydroxypiperidin-1-ium-1-yl)-1-[4-(1-methyltetrazol-5-yl)phenyl]propyl]-5,6,7,8-tetrahydrothiazolo[5,4-b]quinoline-2-carboxamide; 2,2,2-trifluoroacetate], 1150 nM; to `CC(C)(C)[C@H]1CCc2nc3sc(C(=O)N[C@H](CCN4CCCCC4)c4ccc(-c5cnc(O)c(F)c5)cc4)cc3cc2C1` [Example 238, (S)-6-(tert-butyl)-N-((R)-1-(4-(5-fluoro-6-hydroxypyridin-3-yl)phenyl)-3-(piperidin-1-yl)propyl)-5,6,7,8-tetrahydrothieno[2,3-b]quinoline-2-carboxamide], 235 nM. To `CC(C)(C)[C@H]1CCc2nc3sc(C(=O)N[C@H](CCN4CCC(F)CC4)c4ccc(-c5ccc(=O)[nH]c5)cc4)cc3cc2C1` (racemic) [Example 59, rac-(6S)-6-tert-butyl-N-[rac-(1R)-3-(4-fluoropiperidin-1-ium-1-yl)-1-[4-(6-oxo-1H-pyridin-3-yl)phenyl]propyl]-5,6,7,8-tetrahydrothieno[2,3-b]quinoline-2-carboxamide;formate] belongs 1010 nM; to `CC(C)(C)[C@H]1CCc2nc3sc(C(=O)N[C@H](CCN4CCC(O)CC4)c4ccc(-c5ccc(=O)[nH]c5)cc4)nc3cc2C1` (racemic) [Example 73, rac-(7S)-7-tert-butyl-N-[rac-(1R)-3-(4-hydroxy-1-piperidyl)-1-[4-(6-oxo-1H-pyridin-3-yl)phenyl]propyl]-5,6,7,8-tetrahydrothiazolo[5,4-b]quinoline-2-carboxamide], 269 nM; to `CC1(O)CN(CC[C@@H](NC(=O)c2cc3cc4c(nc3s2)CC[C@H](C(C)(C)C)C4)c2cccc(NS(C)(=O)=O)c2)C1` (racemic) [Example 16, ammonium; methylsulfonyl-[3-[rac-(1R)-3-(3-hydroxy-3-methyl-azetidin-1-yl)-1-[[rac-(6S)-6-tert-butyl-5,6,7,8-tetrahydrothieno[2,3-b]quinoline-2-carbonyl]amino]propyl]phenyl] azanide], 1120 nM.

`Cn1cncc1-c1ccc([C@@H](CCN2CCC(O)CC2)NC(=O)c2nc3cc4c(nc3s2)CC[C@H](C(C)(C)C)C4)cc1` (racemic) [Example 179, rac-(7S)-7-tert-butyl-N-[rac-(1R)-3-(4-hydroxy-1-piperidyl)-1-[4-(3-methylimidazol-4-yl)phenyl]propyl]-5,6,7,8-tetrahydrothiazolo[5,4-b]quinoline-2-carboxamide] yielded an EC50 of 1420 nM. As for `CC(C)(C)[C@H]1CCc2nc3sc(C(=O)N[C@H](CCN4CCC(O)CC4)c4cccc(NC(=O)CCN)c4)nc3cc2C1` (racemic) [Example 119, [3-oxo-3-[3-[rac-(1R)-3-(4-hydroxy-1-piperidyl)-1-[[rac-(7S)-7-tert-butyl-5,6,7,8-tetrahydrothiazolo [5,4-b]quinoline-2-carbonyl]amino]propyl]anilino]propyl]ammonium; 2,2,2-trifluoroacetate], the figure is 1210 nM. On to `CN1CC(NC(=O)c2cccc([C@@H](CCN3CCC(CO)CC3)NC(=O)c3nc4cc5c(nc4s3)CC[C@H](C(C)(C)C)C5)c2)C1` (racemic) [Example 104, rac-(7S)-7-tert-butyl-N-[rac-(1R)-3-[4-(hydroxymethyl)-1-piperidyl]-1-[3-[(1-methylazetidin-1-ium-3-yl)carbamoyl]phenyl]propyl]-5,6,7,8-tetrahydrothiazolo[5,4-b] quinoline-2-carboxamide; 2,2,2-trifluoroacetate], for which the EC50 was found to be 186 nM. To `CC(C)(C)[C@H]1CCc2nc3sc(C(=O)N[C@H](CCN4CCC(CO)C4)c4ccc(-c5ccc(=O)[nH]c5)cc4)nc3cc2C1` (mixture of isomers) [Example 74, rac-(7S)-7-tert-butyl-N-[rac-(1R)-3-[3-(hydroxymethyl)pyrrolidin-1-yl]-1-[4-(6-oxo-1H-pyridin-3-yl)phenyl]propyl]-5,6,7,8-tetrahydrothiazolo[5,4-b]quinoline-2-carboxamide] belongs 328 nM. As for `CC(C)(C)[C@H]1CCc2nc3sc(C(=O)N[C@H](CCNC4(CO)CCC4)c4cccc(NS(C)(=O)=O)c4)cc3cc2C1` (racemic) [Example 15, ammonium; methylsulfonyl-1-[3-[rac-(1R)-3-[[1-(hydroxymethyl)cyclobutyl]amino]-1-[[rac-(6S)-6-tert-butyl-5,6,7,8-tetrahydrothieno[2,3-b]quinoline-2-carbonyl]amino]propyl]phenyl] azanide], the figure is 942 nM; as for `CC(C)(C)[C@H]1CCc2nc3sc(C(=O)N[C@H](CCNC4CCOCC4)c4cccc(NS(C)(=O)=O)c4)cc3cc2C1` (racemic) [Example 10, ammonium; methylsulfonyl-[3-[rac-(1R)-1-[[rac-(6S)-6-tert-butyl-5,6,7,8-tetrahydrothieno[2,3-b]quinoline-2-carbonyl]amino]-3-(tetrahydro-pyran-4-ylamino)propyl]phenyl]azanide], 710 nM; as for `CC(C)(C)[C@H]1CCc2nc3sc(C(=O)N[C@H](CCN4CCC(O)CC4)c4ccc(-n5ccnc5)cc4)nc3cc2C1` (racemic) [Example 83, rac-(7S)-7-tert-butyl-N-[rac-(1R)-3-(4-hydroxy-piperidin-1-ium-1-yl)-1-(4-imidazol-1-ylphenyl)propyl]-5,6,7,8-tetrahydro-thiazolo[5,4-b] quinoline-2-carboxamide; 2,2,2-trifluoroacetate], 681 nM.
